# Experimental data published in patent US9278958B2, “Anti-cancer compounds” (KATHOLIEKE UNIVERSITEIT LEUVEN, priority 2012, dated 2016).
# Like-named read-outs stand apart in the source and are kept apart here.
# Tests used:
# [1] = test system: BPH-1 (UZ); assay: Cytostatic assay, BPH-1 (UZ); assay type: cell-based; details: Homo sapiens, Table 4
# Outline: (§1)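 Read-out is the cell number after incubation, counted electronically (Coulter). Cultures started from 5-7.5×10^4 cells per well exposed to compound, kept 48 h to 96 h at 37° C under humidified CO2 control.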
# [2] = test system: Raji, human B-lymphoma cells; assay: Cytostatic assay, Raji; assay type: cell-based; details: Table 2
# Outline: as §1
# [3] = test system: FM3A mammary carcinoma cells; assay: Cytostatic assay, FM3A; assay type: cell-based, murine; details: Mus musculus, Table 3
# Outline: as §1
# [4] = test system: HEL embryonic lung fibroblast cells; assay: Cytostatic assay, HEL; assay type: cell-based; details: Homo sapiens, Table 3
# Outline: as §1
# [5] = test system: HeLa cervix carcinoma cells; assay: Cytostatic assay, HeLa; assay type: cell-based, human; details: Homo sapiens; Table 3; read-out: Cytostatic activity (μM) Hela
# Outline: as §1
# [6] = test system: PLC/PRF/5 hepatoma cells; assay: Cytostatic assay, PLC/PRF/5; assay type: cell-based; details: Homo sapiens, Table 4
# Outline: as §1
# [7] = test system: U87 CD4+/CXCR4+/CCR5+ glioma cells; assay: Cytostatic assay, U87 CD4+/CXCR4+/CCR5+; assay type: cell-based; details: Homo sapiens, Glioma cell; Table 3
# Protocol: (§2) To each well of a 96-well microtiter plate were added 5-7.5×10^4 cells and a given amount of the test compound. The cells were allowed to proliferate for 48 h to 96 h (depending on the nature of the cell line) at 37° C. in a humidified CO2-controlled atmosphere. At the end of the incubation period, the cells were counted in a Coulter Counter (Coulter Electronics Ltd, Harpenden Herts, United Kingdom).
# [8] = test system: PC3 (rega) prostate cancer cells; assay: Cytostatic assay, PC3 (rega); assay type: cell-based; details: Table 4
# Outline: as §1
# [9] = test system: OST TK- osteosarcoma cells; assay: Cytostatic assay, OST TK-; assay type: cell-based; details: Homo sapiens; Table 3
# Outline: as §1
# [10] = test system: 293T embryonic kidney cells; assay: Cytostatic assay, 293T; assay type: cell-based; details: Homo sapiens, HEK-293T; Table 3
# Outline: as §1
# [11] = test system: protein synthesis in Raji cells; assay: Antimetabolic activity assay, [4,5-3H]leucine incorporation (protein synthesis), Raji; assay type: cell-based; details: Homo sapiens, incorporation into TCA-insoluble material
# Protocol: [The procedure below names another cell line; the source lists this cell line under the same test.] (§3) Radiolabeled precursors of DNA synthesis ([^3H-methyl]dThd), RNA synthesis ([5-^3H]Urd), and protein synthesis ([4,5-^3H]leu) were added to 10^5 CEM cell cultures in the 200 μl-wells of a microtiter plate at 1 μCi for each precursor in the presence of varying concentrations of the test compounds (5-fold dilution series). The cells were allowed to proliferate for 20 hrs at 37° C. in a humidified, CO2-controlled atmosphere. At the end of the incubation period, the contents of the wells were brought onto 25-mm glass fiber filters and further processed for measurement of acid-insoluble radioactivity.
# [12] = test system: U87 glioma cells; assay: Cytostatic assay, U87; assay type: cell-based; details: Homo sapiens, U-87 MG; Table 3
# Outline: as §1
# [13] = test system: Caki-2 kidney carcinoma cells; assay: Cytostatic assay, Caki-2; assay type: cell-based; details: Homo sapiens, Table 3
# Outline: as §1
# [14] = test system: L1210 cells; assay: Cytostatic assay, L1210; assay type: cell-based; details: Mus musculus, Table 2
# Outline: as §1
# [15] = test system: Sup T1 cells; assay: Cytostatic assay, Sup T1; assay type: cell-based; details: Homo sapiens, Table 2, read-out: Cytostatic activity (μM) Sup T 1
# Outline: as §1
# [16] = test system: HOS CD4+ osteosarcoma cells; assay: Cytostatic assay, HOS CD4+; assay type: cell-based; details: Homo sapiens; Table 3
# Protocol: as §2
# [17] = test system: U937, human monocytic cells; assay: Cytostatic assay, U937; assay type: cell-based; details: U-937, Table 2
# Outline: as §1
# [18] = test system: RNA synthesis in CEM cells; assay: Antimetabolic activity assay, [5-3H]uridine incorporation (RNA synthesis), CEM; assay type: cell-based; details: Homo sapiens, CCRF-CEM, incorporation into TCA-insoluble material
# Protocol: as §3
# [19] = test system: RNA synthesis in Raji cells; assay: Antimetabolic activity assay, [5-3H]uridine incorporation (RNA synthesis), Raji; assay type: cell-based; details: Homo sapiens, incorporation into TCA-insoluble material
# Protocol: [The procedure below names another cell line; the source lists this cell line under the same test.] as §3
# [20] = test system: HepG2C3A hepatoma cells; assay: Cytostatic assay, HepG2C3A; assay type: cell-based; details: Homo sapiens, HepG2/C3A; Table 4
# Outline: as §1
# [21] = test system: Huh-7 hepatoma cells; assay: Cytostatic assay, Huh-7; assay type: cell-based; details: Homo sapiens, Table 4
# Outline: as §1
# [22] = test system: MCF-7 mammary carcinoma cells; assay: Cytostatic assay, MCF-7; assay type: cell-based; details: Homo sapiens, MCF7; Table 3
# Outline: as §1
# [23] = test system: Caki-1 kidney carcinoma cells; assay: Cytostatic assay, Caki-1; assay type: cell-based; details: Homo sapiens, Table 3
# Outline: as §1
# [24] = test system: HUT-78 cells; assay: Cytostatic assay, HUT-78; assay type: cell-based; details: Homo sapiens, HuT78; Table 2
# Outline: as §1
# [25] = test system: MT-2 cells; assay: Cytostatic assay, MT-2; assay type: cell-based; details: Homo sapiens, MT2; Table 2
# Outline: as §1
# [26] = test system: protein synthesis in CEM cells; assay: Antimetabolic activity assay, [4,5-3H]leucine incorporation (protein synthesis), CEM; assay type: cell-based; details: Homo sapiens, CCRF-CEM, incorporation into TCA-insoluble material
# Protocol: as §3
# [27] = test system: THP-1, human monocytic cells; assay: Cytostatic assay, THP-1; assay type: cell-based; details: Table 2
# Outline: as §1
# [28] = test system: Molt4/C8 cells; assay: Cytostatic assay, Molt4/C8; assay type: cell-based; details: Table 2
# Outline: as §1
# [29] = test system: DNA synthesis in CEM cells; assay: Antimetabolic activity assay, [CH3-3H]dThd incorporation (DNA synthesis), CEM; assay type: cell-based; details: Homo sapiens, CCRF-CEM, incorporation into TCA-insoluble material
# Protocol: as §3
# [30] = test system: LNCaP (UZ) prostate cancer cells; assay: Cytostatic assay, LNCaP (UZ); assay type: cell-based; details: Homo sapiens, Table 4
# Outline: as §1
# [31] = test system: 22Rv1 (UZ) prostate cancer cells; assay: Cytostatic assay, 22Rv1 (UZ); assay type: cell-based; details: Homo sapiens, Table 4
# Outline: as §1
# [32] = test system: BAEC aortic endothelial cells; assay: Cytostatic assay, BAEC; assay type: cell-based, bovine; details: Bos taurus, Table 3
# Outline: as §1
# [33] = test system: HL60, human leukemia cells; assay: Cytostatic assay, HL-60; assay type: cell-based; details: Table 2
# Outline: as §1
# [34] = test system: MT-4 cells; assay: Cytostatic assay, MT-4; assay type: cell-based; details: Homo sapiens, MT4; Table 2
# Outline: as §1
# [35] = test system: HT29 colorectal carcinoma cells; assay: Cytostatic assay, HT29; assay type: cell-based; details: Homo sapiens, HT-29; Table 3
# Outline: as §1
# [36] = test system: PC-3 (UZ) prostate cancer cells; assay: Cytostatic assay, PC-3 (UZ); assay type: cell-based; details: Table 4
# Outline: as §1
# [37] = test system: DNA synthesis in Raji cells; assay: Antimetabolic activity assay, [CH3-3H]dThd incorporation (DNA synthesis), Raji; assay type: cell-based; details: Homo sapiens, incorporation into TCA-insoluble material
# Protocol: [The procedure below names another cell line; the source lists this cell line under the same test.] as §3
# [38] = test system: Daudi, human B-lymphoma cells; assay: Cytostatic assay, Daudi; assay type: cell-based; details: Table 2
# Protocol: as §2
# [39] = test system: C8166 cells; assay: Cytostatic assay, C8166; assay type: cell-based; details: Homo sapiens, Table 2
# Outline: as §1
# [40] = test system: broad variety of tumor cell lines; assay: Cytostatic assays, summary over the panel of cell lines (Tables 2-4); assay type: cell-based
# Protocol: as §2
# [41] = test system: CEM cells; assay: Cytostatic assay, CEM; assay type: cell-based; details: Homo sapiens, CCRF-CEM
# Outline: as §1
# [42] = test system: DU145 (UZ) prostate cancer cells; assay: Cytostatic assay, DU145 (UZ); assay type: cell-based; details: Homo sapiens, DU-145; Table 4
# Outline: as §1
# [43] = test system: PNT1A (UZ) prostate cells; assay: Cytostatic assay, PNT1A (UZ); assay type: cell-based; details: Homo sapiens, Table 4
# Outline: as §1
smiles,measurement,setting,value
"CCOC(=O)c1cc(C#Cc2ccc(OC)cc2)sc1N [TR530, 2-Amino-5-(4-methoxy-phenylethynyl)-thiophene-3-carboxylic acid ethyl ester]",IC50,[1],41 ± 1.4 µM
same,IC50,[2],48 ± 1.4 µM
same,IC50,[3],40 ± 3.5 µM
same,IC50,[4],35 ± 13 µM
same,IC50,[5],42 ± 5.5 µM
same,IC50,[6],41 ± 6.4 µM
same,IC50,[7],28 ± 3.5 µM
same,IC50,[8],0.29 ± 0.14 µM
same,IC50,[9],3.8 ± 1.7 µM
same,IC50,[10],37 ± 0.71 µM
same,IC50,[11],≥ 100 µM
same,IC50,[12],37 ± 2.8 µM
same,IC50,[13],88 ± 17 µM
same,IC50,[14],40 ± 2 µM
same,IC50,[15],1.5 ± 0.14 µM
same,IC50,[16],35 ± 7.1 µM
same,IC50,[17],41 ± 1.4 µM
same,IC50,[18],0.66 ± 0.01 µM
same,IC50,[19],60 ± 57 µM
same,IC50,[20],12 ± 2.1 µM
same,IC50,[21],1.5 ± 0.28 µM
same,IC50,[22],42 ± 0.71 µM
same,IC50,[23],5.3 ± 2.2 µM
same,IC50,[24],44 ± 6.4 µM
same,IC50,[25],1.5 ± 0.21 µM
same,IC50,[26],0.2 ± 0.07 µM
same,IC50,[27],44 ± 1.4 µM
same,IC50,[28],0.22 µM
same,IC50,[29],2.3 ± 1 µM
same,IC50,[30],0.26 ± 0.081 µM
same,IC50,[31],6.3 ± 2.5 µM
same,IC50,[32],16 ± 16 µM
same,IC50,[33],6.2 ± 8.5 µM
same,IC50,[34],22 ± 15 µM
same,IC50,[35],48 ± 23 µM
same,IC50,[36],0.96 ± 0.2 µM
same,IC50,[37],≥ 100 µM
same,IC50,[38],43 ± 2.8 µM
same,IC50,[39],2.8 ± 0.14 µM
same,IC50,"[40]; Homo sapiens, HuT78, range for the seven compounds, MT-4 and HUT-78 cells, read-out: IC50 range, cytostatic activity against MT-4 and HUT-78 cells",8.5 to 60 µM
same,IC50,"[40]; range for the seven compounds against the 5 tumor cell lines, read-out: IC50 range, cytostatic activity against CEM, Molt4/C8, Sup T1, MT-2 and C8166 cells",0.22 to 3.4 µM
same,IC50,"[41]; Table 1a, read-out: IC50 μM (CEM)",0.7 µM
same,IC50,"[41]; Table 2, read-out: Cytostatic activity (μM) CEM",0.73 ± 0.62 µM
same,IC50,[42],9.3 ± 8.4 µM
same,IC50,[43],38 ± 7.8 µM
